From ChEMBL document CHEMBL3425505, “Selected hybrid natural products as tubulin modulators” (Eur J Med Chem, 2015)
Values after ≈ are worked out from the molar mass of the structure shown.

Tests used:
MCF7 = assay: Cytotoxicity against human MCF7 cells; assay type: functional, cell-based
[1] = Cytotoxicity against human H460 cells; assay type: functional, cell-based; conditions: NCI-H460
A2780 = assay: Cytotoxicity against human A2780 cells; assay type: functional, cell-based
B16 = assay: Cytotoxicity against mouse B16 cells; assay type: functional, cell-based
CCRF-CEM = assay: Growth inhibition of human CCRF-CEM cells; assay type: functional
SR = assay: Growth inhibition of human SR cells; assay type: functional
Homo sapiens [2] = species: Homo sapiens; assay: Toxicity in metastatic breast cancer patient assessed as neuropathy rate; assay type: organism-based; conditions: in vivo
Homo sapiens [3] = species: Homo sapiens; assay: Toxicity in metastatic breast cancer patient assessed as incidence of neuropathy; assay type: organism-based; conditions: in vivo
Homo sapiens [4] = species: Homo sapiens; assay: Toxicity in metastatic breast cancer patient assessed as incidence of peripheral neuropathy; assay type: organism-based; conditions: in vivo

## CO[C@H]1/C=C(/C)CCC[C@H](C)[C@H](O)[C@@H](C)C(=O)C(C)(C)[C@@H](O)CC(=O)O[C@@H]1/C(C)=C/c1csc(C)n1
MCF7
  IC50: 3.7 nM
[1]
  IC50: 4.9 nM

## C/C(=C\c1csc(C)n1)[C@@H]1C[C@@H]2O[C@@H]2CCC[C@@H]2CCC[C@@H](C(=O)C(C)(C)[C@@H](O)CC(=O)O1)[C@H]2O
A2780
  EC50: 8500 nM

## C/C(=C\c1csc(C)n1)[C@@H]1C[C@@H]2O[C@]2(C)CCC[C@@H]2CCC[C@@H](C(=O)C(C)(C)[C@@H](O)CC(=O)O1)[C@H]2O
A2780
  EC50: 8500 nM

## C=C1C[C@@H]2CC[C@@]34O[C@@H]5[C@@H]6O[C@](O)([C@H](O3)[C@@H]6O[C@H]3CC[C@H](CC(=O)O[C@@H]6[C@@H](C)[C@@H]7O[C@@H]8C[C@]9(C[C@@H]%10O[C@]%11(C[C@H](C)[C@@H]%12O[C@H](CC(=O)O)[C@H](O)C[C@@H]%12O%11)C[C@H](C)[C@@H]%10O9)O[C@@H]8C[C@@H]7O[C@H]6C[C@H]6O[C@@H](CC[C@@H]1O2)C[C@@H](C)C6=C)O[C@H]53)[C@H]4O
B16
  IC50: 5 ng/mL (≈ 4.44 nM)

## CC1=C(c2ccc(C)cn2)CC2/C=C(/C)CCC[C@H](C)[C@H](O)[C@@H](C)C(=O)C(C)(C)[C@@H](O)CC(=O)O[C@H]12 (single isomer, unassigned)
CCRF-CEM
  GI50: 2.7 nM
SR
  GI50: 2.9 nM

## C=C1C[C@@H]2CC[C@@]34C[C@H]5O[C@H]6[C@@H](O3)[C@H]3O[C@H](CC[C@@H]3O[C@H]6[C@H]5O4)CC(=O)C[C@@H]3[C@@H](OC)[C@@H](C[C@H](O)CN)O[C@H]3C[C@H]3O[C@@H](CC[C@@H]1O2)C[C@@H](C)C3=C [ERIBULIN]
Homo sapiens [2]
  Activity: 35%
Homo sapiens [3]
  Activity: 33.3%
Homo sapiens [4]
  Activity: 31.4%

## C/C(=C\c1csc(C)n1)[C@@H]1C[C@@H]2O[C@]2(C)CCC[C@H](C)[C@H](O)[C@@H](C)C(=O)C(C)(C)[C@@H](O)CC(=O)N1 [IXABEPILONE]
Homo sapiens [2]
  Activity: 63%
Homo sapiens [3]
  Activity: 48%
Homo sapiens [4]
  Activity: 44%
